Measurements as given in patent US11020398B2, “Amino-pyrrolopyrimidinone compounds and methods of use thereof” (ArQule, Inc., priority 2016, dated 2021).

Biological target: phosphorylated form of full length BTK (active BTK) (Homo sapiens (Human), UniProt Q06187)
Assay: Mobility shift assay (MSA, Caliper LabChip), active BTK assay
Assay type: biochemical
Conditions: Assay type B (MSA using active BTK)
Procedure: The active BTK assay consists of phosphorylated form of full length BTK. […] The enzyme inhibitor complexes is incubated, before the kinase activation reaction is initiated.
Mobility Shift Assay (MSA)
The active BTK assay consisted of phosphorylated form of full length BTK. […] The enzyme inhibitor complexes was incubated for 30 minutes at the room temperature and the kinase activation reaction was initiated by the addition of 1 μM Srctide peptide substrate and […].

Chain of phosphorylated form of full length BTK (active BTK) (Q06187 whole entry): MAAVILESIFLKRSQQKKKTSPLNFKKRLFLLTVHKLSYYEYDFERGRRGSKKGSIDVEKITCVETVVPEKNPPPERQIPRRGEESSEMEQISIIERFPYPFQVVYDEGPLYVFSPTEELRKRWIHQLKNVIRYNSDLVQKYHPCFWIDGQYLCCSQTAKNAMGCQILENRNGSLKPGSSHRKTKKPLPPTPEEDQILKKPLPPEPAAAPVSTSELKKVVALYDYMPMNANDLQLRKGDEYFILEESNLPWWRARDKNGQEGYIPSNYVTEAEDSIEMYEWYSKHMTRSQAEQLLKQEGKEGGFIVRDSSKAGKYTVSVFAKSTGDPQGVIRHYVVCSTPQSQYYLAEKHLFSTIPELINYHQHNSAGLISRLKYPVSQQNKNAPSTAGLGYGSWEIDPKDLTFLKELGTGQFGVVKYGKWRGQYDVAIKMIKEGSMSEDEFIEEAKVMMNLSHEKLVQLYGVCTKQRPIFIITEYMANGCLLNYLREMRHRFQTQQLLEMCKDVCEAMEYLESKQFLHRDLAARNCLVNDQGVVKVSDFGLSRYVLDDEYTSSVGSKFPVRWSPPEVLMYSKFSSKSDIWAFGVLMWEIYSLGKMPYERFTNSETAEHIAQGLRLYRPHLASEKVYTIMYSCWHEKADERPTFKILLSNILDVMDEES

IC50 [nM]	Compound
2.2	C[C@@H](O)[C@@H]1CC[C@@H](Nc2ncnc3[nH]cc(C(=O)c4ccc(Oc5cccc(Cl)c5)cc4Cl)c23)CO1 [Compound I-183, (2-chloro-4-(3-chlorophenoxy)phenyl)(4-(((3R,6S)-6-((R)-1-hydroxyethyl)tetrahydro-2H-pyran-3-yl)amino)-7H-pyrrolo[2,3-d]pyrimidin-5-yl)methanone]
61	CC(C)(C)OC(=O)N[C@H]1CC[C@H](Nc2ncnc3[nH]cc(C(=O)c4ccc(Oc5ccccc5)cc4)c23)C1 [Compound I-184, tert-butyl ((1S,3S)-3-((5-(4-phenoxybenzoyl)-7H-pyrrolo[2,3-d]pyrimidin-4-yl)amino)cyclopentyl)carbamate]
57	CC(C)(C)OC(=O)N[C@H]1C[C@H](Nc2ncnc3[nH]cc(C(=O)c4ccc(Oc5ccccc5)cc4)c23)C1 [Compound I-185, tert-butyl (trans-3-((5-(4-phenoxybenzoyl)-7H-pyrrolo[2,3-d]pyrimidin-4-yl)amino)cyclobutyl)carbamate]
12	CC(C)(C)OC(=O)N[C@H]1C[C@@H](Nc2ncnc3[nH]cc(C(=O)c4ccc(Oc5ccccc5)cc4)c23)C1 [Compound I-186, tert-butyl (cis-3-((5-(4-phenoxybenzoyl)-7H-pyrrolo[2,3-d]pyrimidin-4-yl)amino)cyclobutyl)carbamate]
4.2	O=C(c1ccc(Oc2ccccc2)cc1)c1c[nH]c2ncnc(N[C@H]3C[C@H](CO)C3)c12 [Compound I-187, (4-((trans-3-(hydroxymethyl)cyclobutyl)amino)-7H-pyrrolo[2,3-d]pyrimidin-5-yl)(4-phenoxyphenyl)methanone]
1.7	CC(C)(O)[C@@H]1CC[C@@H](Nc2ncnc3[nH]cc(C(=O)c4ccc(Oc5ccccc5)cc4Cl)c23)CO1 [Compound I-188, (2-chloro-4-phenoxyphenyl)(4-(((3R,6S)-6-(2-hydroxypropan-2-yl)tetrahydro-2H-pyran-3-yl)amino)-7H-pyrrolo[2,3-d]pyrimidin-5-yl)methanone]
17	N[C@@H]1CC[C@@H](Nc2ncnc3[nH]cc(C(=O)c4ccc(Oc5ccccc5)cc4)c23)C1 [Compound I-189, (4-(((1R,3R)-3-aminocyclopentyl)amino)-7H-pyrrolo[2,3-d]pyrimidin-5-yl)(4-phenoxyphenyl)methanone]
17	N[C@H]1C[C@@H](Nc2ncnc3[nH]cc(C(=O)c4ccc(Oc5ccccc5)cc4)c23)C1 [Compound I-190, (4-((cis-3-aminocyclobutyl)amino)-7H-pyrrolo[2,3-d]pyrimidin-5-yl)(4-phenoxyphenyl)methanone]
37	N[C@H]1C[C@H](Nc2ncnc3[nH]cc(C(=O)c4ccc(Oc5ccccc5)cc4)c23)C1 [Compound I-191, (4-((trans-3-aminocyclobutyl)amino)-7H-pyrrolo[2,3-d]pyrimidin-5-yl)(4-phenoxyphenyl)methanone]
4.4	CC(=O)N[C@@H]1CC[C@@H](Nc2ncnc3[nH]cc(C(=O)c4ccc(Oc5ccccc5)cc4)c23)C1 [Compound I-192, N-((1R,3R)-3-((5-(4-phenoxybenzoyl)-7H-pyrrolo[2,3-d]pyrimidin-4-yl)amino)cyclopentyl)acetamide]
1.2	C[C@H](O)C(=O)N[C@H]1CC[C@@H](Nc2ncnc3[nH]cc(C(=O)c4ccc(Oc5ccccc5)cc4Cl)c23)CC1 [Compound I-193, (S)—N-(cis-4-((5-(2-chloro-4-phenoxybenzoyl)-7H-pyrrolo[2,3-d]pyrimidin-4-yl)amino)cyclohexyl)-2-hydroxypropanamide]
1.5	CC(C)(O)C(=O)N[C@H]1CC[C@@H](Nc2ncnc3[nH]cc(C(=O)c4ccc(Oc5ccccc5)cc4Cl)c23)CC1 [Compound I-194, N-(cis-4-((5-(2-chloro-4-phenoxybenzoyl)-7H-pyrrolo[2,3-d]pyrimidin-4-yl)amino)cyclohexyl)-2-hydroxy-2-methylpropanamide]
